In publication PMC3334918, “Mutagenesis and Functional Studies with Succinate Dehydrogenase Inhibitors in the Wheat Pathogen Mycosphaerella graminicola” (PLoS ONE, 2012):
Where “and” joins values, the source holds several entries; their conditions need not be identical. Identical values can stand only once.

Experiments:
Experiment in all cases: in vivo sensitivity, liquid culture growth (AE media)
Assay type in all cases: cell-based, Mycosphaerella graminicola
[1] = tested on: M. graminicola strain Cbx101 (SDHD_D129S); settings: D_D129S, ratio IC50mutant/IC50WT
Method: (§1) To explore the sensitivity profiles conferred by amino acid substitutions at the cellular and mitochondrial level, we determined sensitivity towards 4 different compounds for 26 of the identified substitution types both in vivo using liquid culture growth (AE media) and in vitro using purified mitochondria and the succinate: Q0/DCPIP activity test (Table 3). […] Resistance factors (RF) were determined as the ratio IC50mutant/IC50WT. […] Qp site mutations are well known to influence SDH enzyme activity and stability upon catalysis, [13], [38], [41].
(§2) Conidial cells were collected from 4 day old V8 agar plates (cultured at 18°C in the dark) using liquid AE and a cell spreader. Cell density was determined and cells re-suspended to a concentration of 5×10^5 cells ml^−1 in AE media. Sterile 96 wells microtiter plates with lids (Costar) were inoculated with 198 µl of this cell suspension (10^5 cells per well) and 2 µl of inhibitor (100× in DMSO). Final inhibitor concentrations were between 0.95 nM and 1 mM with uniform 4× dilution factor steps (11 inhibitor concentrations+1 DMSO control). Plates were incubated for 6 days at 19°C in the dark before cells were re-suspended and measured for growth (OD600 nm). IC50 values were determined by non linear curve fitting on the basis of measured OD values versus log inhibitor concentrations (GraphPad Prism 5.0 software).

[2] = tested on: M. graminicola strain Flu9 (SDHC_R87C); settings: C_R87C, ratio IC50mutant/IC50WT
Method: as §1, §2

[3] = tested on: M. graminicola strain Cbx106 (SDHB_N225H); settings: B_N225H, ratio IC50mutant/IC50WT
Method: as §1, §2

[4] = tested on: M. graminicola strain Flu1 (SDHC_S83G); settings: C_S83G, ratio IC50mutant/IC50WT
Method: as §1, §2

[5] = tested on: M. graminicola strain Ol50 (SDHC_V88D); settings: C_V88D, ratio IC50mutant/IC50WT
Method: as §1, §2

[6] = tested on: M. graminicola strain Flu7 (SDHB_N225I); settings: B_N225I, ratio IC50mutant/IC50WT
Method: as §1, §2

[7] = tested on: M. graminicola strain Flu41 (SDHB_S218F); settings: B_S218F, ratio IC50mutant/IC50WT
Method: as §1, §2

[8] = tested on: M. graminicola strain Izm7 (SDHC_N86K); settings: C_N86K, ratio IC50mutant/IC50WT
Method: as §1, §2

[9] = tested on: M. graminicola strain Cbx12 (SDHC_L85P); settings: C_L85P, ratio IC50mutant/IC50WT
Method: as §1, §2

[10] = tested on: M. graminicola strain Cbx1 (SDHB_I269V); settings: B_I269V, ratio IC50mutant/IC50WT
Method: as §1, §2

[11] = tested on: M. graminicola strain Cbx67 (SDHD_D129G); settings: D_D129G, ratio IC50mutant/IC50WT
Method: as §1, §2

[12] = tested on: M. graminicola strain Izm1 (SDHC_H152R); settings: C_H152R, ratio IC50mutant/IC50WT
Method: as §1, §2

[13] = tested on: M. graminicola strain Flu29 (SDHD_D129T); settings: D_D129T, ratio IC50mutant/IC50WT
Method: as §1, §2

[14] = tested on: M. graminicola strain Flu4 (SDHC_A84V); settings: C_A84V, ratio IC50mutant/IC50WT
Method: as §1, §2

[15] = tested on: M. graminicola strain Cbx28 (SDHB_H267Y); settings: B_H267Y, strain Cbx28; ratio IC50mutant/IC50WT
Method: as §1, §2

[16] = tested on: M. graminicola strain Bos59 (SDHB_H267Q); settings: B_H267Q, ratio IC50mutant/IC50WT
Method: as §1, §2

[17] = tested on: M. graminicola strain Cbx76 (SDHC_H145R); settings: C_H145R, ratio IC50mutant/IC50WT
Method: as §1, §2

[18] = tested on: M. graminicola strain Flu33 (SDHB_N271K); settings: B_N271K, ratio IC50mutant/IC50WT
Method: as §1, §2

[19] = tested on: M. graminicola strain Cbx56 (SDHB_R265P); settings: B_R265P, ratio IC50mutant/IC50WT
Method: as §1, §2

[20] = tested on: M. graminicola strain Bos64 (SDHC_T79I); settings: C_T79I, ratio IC50mutant/IC50WT
Method: as §1, §2

[21] = tested on: M. graminicola strain Cbx29 (SDHB_H267L); settings: B_H267L, ratio IC50mutant/IC50WT
Method: as §1, §2

[22] = tested on: M. graminicola strain Flu21 (SDHC_A84I); settings: C_A84I, ratio IC50mutant/IC50WT
Method: as §1, §2

[23] = tested on: M. graminicola strain Cbx22 (SDHD_D129E); settings: D_D129E, ratio IC50mutant/IC50WT
Method: as §1, §2

[24] = tested on: M. graminicola strain Flu110 (SDHB_P220T); settings: B_P220T, ratio IC50mutant/IC50WT
Method: as §1, §2

[25] = tested on: M. graminicola strain Cbx96 (SDHB_H267N); settings: B_H267N, ratio IC50mutant/IC50WT
Method: as §1, §2

[26] = tested on: M. graminicola strain Flu75 (SDHB_P220L); settings: B_P220L, ratio IC50mutant/IC50WT
Method: as §1, §2

SMILES: CC(C)C1C2CCC1c1c(NC(=O)c3cn(C)nc3C(F)F)cccc12 (centres unmarked) [Isopyrazam]
- Resistance Factors (RFs) in vivo [1]: 10.8
- Resistance Factors (RFs) in vivo [2]: 3.7
- Resistance Factors (RFs) in vivo [3]: 13.6
- Resistance Factors (RFs) in vivo [4]: 61.2
- Resistance Factors (RFs) in vivo [5]: 36.5
- Resistance Factors (RFs) in vivo [6]: 15.0
- Resistance Factors (RFs) in vivo [7]: 15.0
- Resistance Factors (RFs) in vivo [8]: 464.4
- Resistance Factors (RFs) in vivo [9]: 10.0
- Resistance Factors (RFs) in vivo [10]: 5.0
- Resistance Factors (RFs) in vivo [11]: 22.9
- Resistance Factors (RFs) in vivo [12]: 133.9
- Resistance Factors (RFs) in vivo [13]: 33 and 33.5
- Resistance Factors (RFs) in vivo [14]: 3.5
- Resistance Factors (RFs) in vivo [15]: 16.1
- Resistance Factors (RFs) in vivo [16]: 12.5
- Resistance Factors (RFs) in vivo [17]: 27.6
- Resistance Factors (RFs) in vivo [18]: 5.7
- Resistance Factors (RFs) in vivo [19]: 7.6
- Resistance Factors (RFs) in vivo [20]: 15.8
- Resistance Factors (RFs) in vivo [21]: 152.2
- Resistance Factors (RFs) in vivo [22]: 8.8
- Resistance Factors (RFs) in vivo [23]: 6.8
- Resistance Factors (RFs) in vivo [24]: 3.8
- Resistance Factors (RFs) in vivo [25]: 4.5
- Resistance Factors (RFs) in vivo [26]: 4.8
